Details: for log10 biotransformation half-life (days) / log10 BCF: fish

Work on `CCCN(CCC)C(=O)C(CCC(=O)O)NC(=O)c1ccccc1` (configuration not stated) yielded a melting point of 144 °C.
`O=Cc1cc(Br)cc(Br)c1O` gave a melting point of 86 °C.
`C=CC#N` showed a boiling point of 77.3 °C, a log10 Henry constant (atm·m³/mol) of -3.86 and a log10 vapour pressure (mmHg) of 2.04. For the same compound, the melting point was -83.5 °C and the ready biodegradability was “readily biodegradable”.
For `N[C@@H]1CONC1=O`, the melting point was 140 °C.
With `O=C(O)CCC(=O)O` the log10 vapour pressure (mmHg) was -6.72, the melting point was 188 °C and the ready biodegradability was “readily biodegradable”.
Work on `O=C(C=Cc1ccccc1)OCC=Cc1ccccc1` yielded a melting point of 44 °C.
Work on `O=C(Nc1ccc(Cl)cc1)Nc1ccc(Cl)c(C(F)(F)F)c1` yielded a melting point of 214 °C.
`O=[N+]([O-])c1ccc(O)cc1C(F)(F)F` gave a log10 Koc (L/kg) of 2.11 and a melting point of 76 °C.
In the case of `CCC#CCCCCC`, the boiling point is reported as 157 °C.
With `C=C[Si](OCC)(OCC)OCC` the log10 vapour pressure (mmHg) was 0.358.
Compound `O=C(O)[C@@H]1CCc2ccccc2C1` has a melting point of 97.7 °C.
With `O=CCC(O)[C@H](O)CO` (stereo in doubt) the melting point was 91 °C.
With `CN(C)CC/C=C1\c2ccccc2CSc2ccccc21` the melting point was 56 °C.
Work on `O=C(O)CC=Cc1ccccc1` yielded a boiling point of 302 °C and a melting point of 87 °C.
Compound `Cc1ccc(CCN)cc1` has a boiling point of 214 °C.
Compound `C=CCOc1nc(OCC=C)nc(OCC=C)n1` has a melting point of 27 °C.
With `Oc1c2ccccc2cc2ccccc12` the melting point was 152 °C.
Compound `CCCCCCOC(=O)c1ccccc1` has a boiling point of 272 °C.
`CN(C)c1ccc(C(O)(c2ccccc2)c2ccc(N(C)C)cc2)cc1` showed a melting point of 113 °C.
`O=NN1CCOCC1` gave a boiling point of 225 °C and a melting point of 29 °C.
In the case of `c1ccc(N=Nc2ccccc2)cc1`, the boiling point is reported as 293 °C, the log10 Koc (L/kg) is reported as 3.3 and the log10 vapour pressure (mmHg) is reported as -3.44. The melting point was 68.2 °C and the ready biodegradability was “not readily biodegradable”.
`c1ccc([As](c2ccccc2)c2ccccc2)cc1` showed a boiling point of 360 °C, a log10 vapour pressure (mmHg) of -4.3 and a melting point of 61 °C.
In the case of `CCCCCCCCC(C)C`, the boiling point is reported as 189 °C, the log10 vapour pressure (mmHg) is reported as -0.22 and the melting point is reported as -48.9 °C. For the same compound, the log10 biotransformation half-life (days) was 0.1.
Work on `c1ccc2c(c1)-c1cc3ccccc3c3cc4ccccc4c-2c13` yielded a melting point of 232 °C.
Work on `CCOC(=O)/C=C(C)/C=C/CC(C)CCCC(C)C` (configuration not stated) yielded a log10 vapour pressure (mmHg) of -3.61.
Work on `CC(=O)O[C@]1(C(C)=O)CC[C@H]2[C@@H]3C=C(Cl)C4=CC(=O)C=C[C@]4(C)[C@H]3CC[C@@]21C` yielded a melting point of 168 °C.
`C=CC(Cl)CCl` (configuration not stated) gave a boiling point of 116 °C, a log10 vapour pressure (mmHg) of 1.34 and a melting point of -61 °C. The ready biodegradability was “not readily biodegradable”, the log10 BCF was 1.11 and the log10 biotransformation half-life (days) was -1.28.
With `ClC1=C(Cl)C2(Cl)C3C(Cl)C(Cl)CC3C1(Cl)C2(Cl)Cl` (configuration not stated) the log10 Henry constant (atm·m³/mol) was -3.53, the log10 Koc (L/kg) was 4.78 and the log10 vapour pressure (mmHg) was -4.69. For the same compound, the melting point was 106 °C, the ready biodegradability was “not readily biodegradable” and the log10 BCF was 4.35. It also gave a log10 biotransformation half-life (days) of 2.26.
`CCC1(C2=CCCCCC2)C(=O)NC(=O)NC1=O` showed a melting point of 174 °C.
With `CCCOC(=O)c1cc(O)c(O)c(O)c1` the melting point was 130 °C.
With `Clc1ccc2c(c1)Oc1ccccc1O2` the log10 vapour pressure (mmHg) was -4.89 and the melting point was 88 °C.
Work on `CC(C)OC(=O)C(C(=O)OC(C)C)=C1SCCS1` yielded a melting point of 54 °C and a log10 BCF of 1.57.
`CC(=O)OCC(C)C` gave a boiling point of 116 °C, a log10 Henry constant (atm·m³/mol) of -3.34 and a log10 Koa of 3.45. The log10 vapour pressure (mmHg) was 1.25, the melting point was -98.8 °C and the ready biodegradability was “readily biodegradable”.
For `CC(C)(C#N)N=NC(C)(C)C#N`, the ready biodegradability was “not readily biodegradable”.
With `COc1cc(CCCO)ccc1O` the melting point was 65 °C.
With `O=C(O)CCCCCCCCCCF` the melting point was 36 °C.
Compound `NC(=O)NNc1ccccc1` has a melting point of 172 °C.
With `O=Cc1ccccn1` the boiling point was 180 °C.
Work on `C1=COCCO1` yielded a boiling point of 94.1 °C.
In the case of `CCCC1CC1`, the boiling point is reported as 69.1 °C.
In the case of `CCCCCCCCOC(=O)c1ccccc1C(=O)OCCCCCCCC(C)C`, the boiling point is reported as 447 °C and the melting point is reported as 98 °C.
`C#CC(C)N(C(=O)CCl)c1ccccc1` (configuration not stated) gave a melting point of 43.5 °C.
Work on `O=C(O)C(Cl)CCl` (configuration not stated) yielded a boiling point of 210 °C and a melting point of 50 °C.
With `O=C1CCc2ccccc21` the boiling point was 243 °C and the melting point was 42 °C.
For `Cc1ccccc1I`, the boiling point was 212 °C and the log10 vapour pressure (mmHg) was -0.344.
Work on `Cc1ccc2ccc3ccc(C)nc3c2n1` yielded a melting point of 160 °C.
Work on `CCNC(=O)Nc1ncc([N+](=O)[O-])s1` yielded a melting point of 228 °C.
In the case of `CC(O)CCO` (configuration not stated), the boiling point is reported as 208 °C and the log10 vapour pressure (mmHg) is reported as -1.7.
`c1ccc2cnncc2c1` showed a boiling point of 316 °C and a melting point of 90.5 °C.
In the case of `CCOC(=O)c1ccccc1Br`, the boiling point is reported as 254 °C.
`FC(F)(F)c1cccc(Br)c1` gave a boiling point of 152 °C and a melting point of 1 °C.
For `Nc1cc2ccccc2c2ccccc12`, the melting point was 138 °C.
`CN(C)c1ccc(C#N)cc1` showed a boiling point of 318 °C and a melting point of 74 °C.
Work on `O=c1c2ccccc2nc2n1CCc1c-2[nH]c2ccccc12` yielded a melting point of 260 °C.
`CCOC(=O)CC(=O)CC(=O)OCC` gave a boiling point of 250 °C.
Compound `[O-][n+]1onc2ccccc21` has a melting point of 70 °C.
In the case of `CCC(O)C(C)(C)C` (configuration not stated), the boiling point is reported as 135 °C and the melting point is reported as -5 °C.
Work on `CC(C)C(C(=O)OC(C#N)c1cccc(Oc2ccccc2)c1)c1ccc(Cl)cc1` (configuration not stated) yielded a log10 Koc (L/kg) of 3.73, a log10 vapour pressure (mmHg) of -8.82 and a melting point of 52.2 °C. For the same compound, the log10 BCF was 2.85 and the log10 biotransformation half-life (days) was 0.69.
In the case of `CCOP(=S)(Oc1ccc([N+](=O)[O-])cc1)c1ccccc1` (configuration not stated), the log10 Koc (L/kg) is reported as 3.12, the log10 vapour pressure (mmHg) is reported as -6.02 and the melting point is reported as 36 °C. The ready biodegradability was “not readily biodegradable” and the log10 BCF was 2.97.
Compound `Cc1cccc(Cl)n1` has a boiling point of 184 °C.
Work on `O=C(O)[C@H](O)[C@@H](O)[C@H](O)[C@H](O)CO` yielded a melting point of 131 °C.
In the case of `O=C(O)C(F)(F)C(F)(F)C(F)(F)C(=O)O`, the melting point is reported as 80 °C.
With `C=COC(=O)CC` the boiling point was 91.2 °C, the melting point was -80 °C and the ready biodegradability was “readily biodegradable”.
`CCC=CCC` showed a boiling point of 66.8 °C, a log10 vapour pressure (mmHg) of 2.22 and a melting point of -114 °C.
Work on `CCC(O)C(C)O` (configuration not stated) yielded a boiling point of 188 °C.
In the case of `Cn1ccccc1=S`, the melting point is reported as 89.5 °C.
Work on `CNC(C)C` yielded a boiling point of 50.4 °C.
With `CCCCCCCCc1ccc(Nc2ccc(CCCCCCCC)cc2)cc1` the ready biodegradability was “not readily biodegradable”.
Work on `CC1=CCC(=C(C)C)CC1` yielded a boiling point of 186 °C, a log10 Henry constant (atm·m³/mol) of -1.58 and a log10 vapour pressure (mmHg) of -0.129. For the same compound, the ready biodegradability was “readily biodegradable”.
In the case of `CC(=O)O`, the boiling point is reported as 118 °C, the log10 Henry constant (atm·m³/mol) is reported as -7 and the log10 vapour pressure (mmHg) is reported as 1.2. The melting point was 16.6 °C and the ready biodegradability was “readily biodegradable”.
With `c1ccc2cc3c(ccc4ccccc43)cc2c1` the boiling point was 438 °C, the log10 Henry constant (atm·m³/mol) was -4.92 and the log10 Koc (L/kg) was 5.3. The log10 biodegradation half-life (days) was 2.46, the log10 vapour pressure (mmHg) was -6.68 and the ready biodegradability was “not readily biodegradable”. The log10 BCF was 2.41 and the log10 biotransformation half-life (days) was 0.02.
Work on `O=C(O)Cc1ccc(Br)cc1` yielded a melting point of 116 °C.
Compound `CCCCCCCCCCCCCCCCCCCCCCCCCCCC` has a boiling point of 432 °C, a log10 biodegradation half-life (days) of 2.1 and a log10 vapour pressure (mmHg) of -8.8. For the same compound, the melting point was 64.5 °C and the ready biodegradability was “readily biodegradable”.
Compound `C=CC=CC#N` has a boiling point of 136 °C and a melting point of -60 °C.
In the case of `Nc1ccc(C(F)(F)F)cc1`, the melting point is reported as 38 °C.
Work on `CC(=O)Br` yielded a boiling point of 76 °C, a log10 vapour pressure (mmHg) of 2.08 and a melting point of -96 °C.
`O=C(O)CS(=O)(=O)O` gave a melting point of 85 °C.
`O=C(O)Cc1ccc(O)c(O)c1` showed a melting point of 128 °C.
In the case of `Clc1ccccc1C1CO1` (configuration not stated), the ready biodegradability is reported as “not readily biodegradable”.
`CC1C=CCC1` (configuration not stated) gave a boiling point of 64.9 °C.
In the case of `CCCCCCOCCCCCC`, the boiling point is reported as 223 °C and the log10 vapour pressure (mmHg) is reported as -1.34.
For `CC1(C)COC(=O)C1O` (configuration not stated), the melting point was 92 °C and the ready biodegradability was “readily biodegradable”.
Compound `CN[C@@H](Cc1ccc(O)cc1)C(=O)O` has a melting point of 293 °C.
`c1ccc2c(c1)CCN2` showed a boiling point of 229 °C.
In the case of `FC(F)(F)CBr`, the boiling point is reported as 26 °C and the melting point is reported as -93.9 °C.
`O=c1cccccc1O` gave a melting point of 50.8 °C.
Compound `O=C(O)CNC(=S)C(=S)NCC(=O)O` has a melting point of 220 °C.
`c1ccc(C2CO2)cc1` (configuration not stated) showed a boiling point of 194 °C, a log10 vapour pressure (mmHg) of -0.523 and a melting point of -35.6 °C. The ready biodegradability was “readily biodegradable”.
Work on `NC(=O)c1ccc(N)cc1` yielded a melting point of 182 °C.
Work on `CCOc1ccccc1F` yielded a boiling point of 171 °C and a melting point of -16.7 °C.
Work on `O=C1C(Cl)=C(Nc2ccccc2)C(=O)c2ccccc21` yielded a melting point of 215 °C.
In the case of `CCCCSP(=O)(SCCCC)SCCCC`, the log10 Henry constant (atm·m³/mol) is reported as -6.53, the log10 Koc (L/kg) is reported as 3.7 and the log10 vapour pressure (mmHg) is reported as -5.28. For the same compound, the ready biodegradability was “readily biodegradable”.
In the case of `Nc1c([N+](=O)[O-])cccc1[N+](=O)[O-]`, the melting point is reported as 142 °C.
In the case of `Fc1nc(F)c(Cl)c(F)n1`, the boiling point is reported as 114 °C.

— the OPERA property sets (Mansouri et al. 2018)
